Earlier results as cited in patent publication US20160199302A1, “Pharmaceutical Composition Comprising Temozolomide With Improved Stability and Process for Manufacturing the Same” (Samyang Biopharmaceuticals Corporation, priority 2012, published 2016).

Conditions: background

Solubility in water: water-insoluble
SMILES: Cn1nnc2c(C(N)=O)ncn2c1=O [temozolomide, 3,4-dihydro-3-methyl-4-oxoimidazo[5,1-d]-as-tetrazine-8-carboxamide]
